{"source": "PubChem BioAssay AID1259411", "about": "(Chemical Carcinogenesis Research Information System (CCRIS), 2018)", "tested_on": "rodent carcinogenicity bioassays, tumor incidence", "assay": "CCRIS carcinogenicity studies", "in_short": "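Archive of carcinogenicity, mutagenicity, tumor promotion and tumor inhibition results drawn from journals, NCI reports and other sources, expert-reviewed; covers 1985-2011 and is no longer updated.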", "note": "Active and inactive are the calls of the source. The rule behind the calls is not given here."}
{"smiles": "NNC(N)=S", "values": [{"measurement": "carcinogen call", "setting": "Species: MOUSE, Strain/Sex: SWISS/FEMALE, Route: ORAL, Dose: 0, 156, 312 PPM IN DRINKING WATER DAILY FOR LIFE (STUDY DURATION: 130-140 WK), Dose: 0, 156, 312 PPM IN DRINKING WATER DAILY FOR LIFE (STUDY DURATION: 130-140 WK)", "value": "inactive; negative"}, {"measurement": "carcinogen call", "setting": "Species: MOUSE, Strain/Sex: SWISS/MALE, Route: ORAL, Dose: 0, 156, 312 PPM IN DRINKING WATER DAILY FOR LIFE (STUDY DURATION: 130-140 WK), Dose: 0, 156, 312 PPM IN DRINKING WATER DAILY FOR LIFE (STUDY DURATION: 130-140 WK)", "value": "inactive; negative"}]}
{"smiles": "O=c1c(-c2ccc(O)cc2)coc2cc(O)cc(O)c12", "values": [{"measurement": "carcinogen call", "setting": "Species: Rat, Strain/Sex: Sprague-Dawley/Female (50/Group), Route: Oral, Dose: During pregnancy, ingested doses for dams were ~0, 0.5, 9, and 45 mg/kg bw/day. During lactation, ingested doses for dam", "value": "inactive; negative"}, {"measurement": "carcinogen call", "setting": "Species: Rat, Strain/Sex: Sprague-Dawley/Female (50/Group), Route: Oral, Dose: During pregnancy, ingested doses for dams were ~0, 0.5, 9, and 45 mg/kg bw/day. During lactation, ingested doses for dam, Tumor Site: Type of Lesion: Mammary gland: adenoma and adenocarcinoma combined (13.2%, 16.3%, 22.0%, 26.0%)", "value": "inactive; negative. positive trend but results do not reach statistical significance (ntp"}, {"measurement": "carcinogen call", "setting": "Species: Rat, Strain/Sex: Sprague-Dawley/Female (50/Group), Route: Oral, Dose: During pregnancy, ingested doses for dams were ~0, 0.5, 9, and 45 mg/kg bw/day. During lactation, ingested doses for dam, Tumor Site: Type of Lesion: Mammary gland: adenoma and adenocarcinoma combined (16.7%, 8.0%, 16.0%, 32.7%) Pituitary gland: neoplasms (70.4%, 80.0%", "value": "inactive; positive but at 2 lower doses, there was a negative trend for the mammary tumors"}, {"measurement": "carcinogen call", "setting": "Species: Rat, Strain/Sex: Sprague-Dawley/Female (50/Group), Route: Oral, Dose: During pregnancy, ingested doses for dams were ~0, 0.5, 9, and 45 mg/kg bw/day. During lactation, ingested doses for dam, Tumor Site: Type of Lesion: Pituitary gland: adenoma and carcinoma combined (Overall rate 70.4%, 65.3%, 80.0%, 88.0%)", "value": "inactive; negative (ntp describes as equivocal)"}, {"measurement": "carcinogen call", "setting": "Species: Rat, Strain/Sex: Sprague-Dawley/Male (50/Group), Route: Oral, Dose: During pregnancy, ingested doses for dams were ~0, 0.5, 9, and 45 mg/kg bw/day. During lactation, ingested doses for dam", "value": "inactive; negative"}]}
{"smiles": "FC(Cl)C(F)(F)F", "note": "(stereo not given)", "values": [{"measurement": "carcinogen call", "setting": "Species: RAT, Strain/Sex: CRL:CD/FEMALE, Route: INHALATION, Dose: 0, 2000, 10,000, 50,000 PPM 6 HR/D 5 D/WK FOR 2 YR (STUDY DURATION: 2 YR), Dose: 0, 2000, 10,000, 50,000 PPM 6 HR/D 5 D/WK FOR 2 YR (STUDY DURATION: 2 YR)", "value": "inactive; negative"}, {"measurement": "carcinogen call", "setting": "Species: RAT, Strain/Sex: CRL:CD/MALE, Route: INHALATION, Dose: 0, 2000, 10,000, 50,000 PPM 6 HR/D 5 D/WK FOR 2 YR (STUDY DURATION: 2 YR), Dose: 0, 2000, 10,000, 50,000 PPM 6 HR/D 5 D/WK FOR 2 YR (STUDY DURATION: 2 YR)", "value": "inactive; negative"}]}
{"smiles": "CNN", "values": [{"measurement": "carcinogen call", "setting": "Species: DOG, Strain/Sex: BEAGLE/FEMALE, Route: INHALATION, Dose: 0, 0.2, 2 PPM 6 HR/D 5 D/WK FOR 1 YR (STUDY DURATION: 6 YR), Dose: 0, 0.2, 2 PPM 6 HR/D 5 D/WK FOR 1 YR (STUDY DURATION: 6 YR)", "value": "inactive; negative"}, {"measurement": "carcinogen call", "setting": "Species: DOG, Strain/Sex: BEAGLE/MALE, Route: INHALATION, Dose: 0, 0.2, 2 PPM 6 HR/D 5 D/WK FOR 1 YR (STUDY DURATION: 6 YR), Dose: 0, 0.2, 2 PPM 6 HR/D 5 D/WK FOR 1 YR (STUDY DURATION: 6 YR)", "value": "inactive; negative"}, {"measurement": "carcinogen call", "setting": "Species: HAMSTER, Route: ORAL, Tumor Site: Type of Lesion: LIVER", "value": "active; positive"}, {"measurement": "carcinogen call", "setting": "Species: HAMSTER, Strain/Sex: SYRIAN/MALE, Route: INHALATION, Dose: 0, 0.2, 2, 5 PPM 6 HR/D 5 D/WK FOR 1 YR (STUDY DURATION: 1 YR), Dose: 0, 0.2, 2, 5 PPM 6 HR/D 5 D/WK FOR 1 YR (STUDY DURATION: 1 YR), Tumor Site: Type of Lesion: NASAL CAVITY: ADENOMA", "value": "active; positive"}, {"measurement": "carcinogen call", "setting": "Species: MOUSE, Route: ORAL, Tumor Site: Type of Lesion: LUNG", "value": "active; positive"}, {"measurement": "carcinogen call", "setting": "Species: MOUSE, Strain/Sex: C57BL/FEMALE, Route: INHALATION, Dose: 0, 0.02, 0.2, 2, 5 PPM 6 HR/D 5 D/WK FOR 1 YR (STUDY DURATION: 2 YR), Dose: 0, 0.02, 0.2, 2, 5 PPM 6 HR/D 5 D/WK FOR 1 YR (STUDY DURATION: 2 YR), Tumor Site: Type of Lesion: LUNG: ADENOMA, LIVER: ADENOMA, CARCINOMA, HEMATOPOIETIC SYSTEM: HEMANGIOMA, Tumor Site: Type of Lesion: LUNG: ADENOMA, LIVER: ADENOMA, CARCINOMA, HEMATOPOIETIC SYSTEM: HEMANGIOMA", "value": "active; positive"}, {"measurement": "carcinogen call", "setting": "Species: MOUSE, Strain/Sex: SWISS/FEMALE, Route: ORAL, Dose: 0.001% SOLUTION IN DRINKING WATER FOR LIFE (DAILY INTAKE: 0.078 MG) (STUDY DURATION: LIFETIME), Tumor Site: Type of Lesion: LUNG: ADENOMA, ADENOCARCINOMA, HEMATOPOIETIC SYSTEM: MALIGNANT LYMPHOMA, MAMMARY GLAND: ADENOCARCINOMA, Tumor Site: Type of Lesion: LUNG: ADENOMA, ADENOCARCINOMA, HEMATOPOIETIC SYSTEM: MALIGNANT LYMPHOMA, MAMMARY GLAND: ADENOCARCINOMA", "value": "active; positive"}, {"measurement": "carcinogen call", "setting": "Species: MOUSE, Strain/Sex: SWISS/MALE, Route: ORAL, Dose: 0.001% SOLUTION IN DRINKING WATER FOR LIFE (DAILY INTAKE: 0.102 MG) (STUDY DURATION: LIFETIME), Tumor Site: Type of Lesion: LUNG: ADENOMA, ADENOCARCINOMA, HEMATOPOIETIC SYSTEM: MALIGNANT LYMPHOMA", "value": "active; positive"}, {"measurement": "carcinogen call", "setting": "Species: RAT, Strain/Sex: F344/FEMALE, Route: INHALATION, Dose: 0, 0.02, 0.2, 2, 5 PPM 6 HR/D 5 D/WK FOR 1 YR (STUDY DURATION: 2 YR), Dose: 0, 0.02, 0.2, 2, 5 PPM 6 HR/D 5 D/WK FOR 1 YR (STUDY DURATION: 2 YR)", "value": "inactive; negative"}, {"measurement": "carcinogen call", "setting": "Species: RAT, Strain/Sex: F344/MALE, Route: INHALATION, Dose: 0, 0.02, 0.2, 2, 5 PPM 6 HR/D 5 D/WK FOR 1 YR (STUDY DURATION: 2 YR), Dose: 0, 0.02, 0.2, 2, 5 PPM 6 HR/D 5 D/WK FOR 1 YR (STUDY DURATION: 2 YR)", "value": "inactive; negative"}]}
{"smiles": "O=P(O)(OCC(Br)CBr)OCC(Br)CBr", "note": "(stereo not given)", "values": [{"measurement": "carcinogen call", "setting": "Species: RAT, Strain/Sex: WISTAR/FEMALE, Route: ORAL, Dose: 0, 80, 400, 2000 IN DIET FOR 24 MO (STUDY DURATION: 24 MO), Dose: 0, 80, 400, 2000 IN DIET FOR 24 MO (STUDY DURATION: 24 MO), Tumor Site: Type of Lesion: LIVER: HEPATOCELLULAR CARCINOMA, SMALL INTESTINE: ADENOCARCINOMA, FORESTOMACH: PAPILLOMA, ESOPHAGUS: PAPILLOMA, Tumor Site: Type of Lesion: LIVER: HEPATOCELLULAR CARCINOMA, SMALL INTESTINE: ADENOCARCINOMA, FORESTOMACH: PAPILLOMA, ESOPHAGUS: PAPILLOMA", "value": "active; positive"}, {"measurement": "carcinogen call", "setting": "Species: RAT, Strain/Sex: WISTAR/MALE, Route: ORAL, Dose: 0, 80, 400, 2000 IN DIET FOR 24 MO (STUDY DURATION: 24 MO), Dose: 0, 80, 400, 2000 IN DIET FOR 24 MO (STUDY DURATION: 24 MO), Tumor Site: Type of Lesion: SMALL INTESTINE: ADENOCARCINOMA, FORESTOMACH: PAPILLOMA, ESOPHAGUS: PAPILLOMA, Tumor Site: Type of Lesion: SMALL INTESTINE: ADENOCARCINOMA, FORESTOMACH: PAPILLOMA, ESOPHAGUS: PAPILLOMA", "value": "active; positive"}]}
{"smiles": "O=C1C2(Cl)C3(Cl)C4(Cl)C(Cl)(Cl)C5(Cl)C3(Cl)C1(Cl)C5(Cl)C24Cl", "note": "(stereo not given)", "values": [{"measurement": "carcinogen call", "setting": "Species: MOUSE, Strain/Sex: B6C3F1/FEMALE, Route: ORAL, Dose: 20, 40 MG/KG IN DIET, TWA, Tumor Site: Type of Lesion: LIVER: HEPATOCELLULAR CARCINOMA", "value": "active; positive"}, {"measurement": "carcinogen call", "setting": "Species: MOUSE, Strain/Sex: B6C3F1/MALE, Route: ORAL, Dose: 20, 23 MG/KG IN DIET, TWA, Tumor Site: Type of Lesion: LIVER: HEPATOCELLULAR CARCINOMA", "value": "active; positive"}, {"measurement": "carcinogen call", "setting": "Species: RAT, Strain/Sex: OSBORNE-MENDEL/FEMALE, Route: ORAL, Dose: 18, 26 MG/KG IN DIET, TWA, Tumor Site: Type of Lesion: LIVER: HEPATOCELLULAR CARCINOMA", "value": "active; positive"}, {"measurement": "carcinogen call", "setting": "Species: RAT, Strain/Sex: OSBORNE-MENDEL/MALE, Route: ORAL, Dose: 8, 24 MG/KG IN DIET, TWA, Tumor Site: Type of Lesion: LIVER: HEPATOCELLULAR CARCINOMA", "value": "active; positive"}]}
